Results as given in patent US10669242B2 (priority 2016, dated 2020).
Counter-ions that a name gives are not always drawn.

target: T1, recombinant glucosyltransferase domain of C. difficile Toxin B/TcdB (Clostridioides difficile, UniProt P18177); experiment: biochemical; settings: not given
T1 construct: 6-His (C); purchased R&D Systems 6246-GT
T1 sequence (P18177 1-543): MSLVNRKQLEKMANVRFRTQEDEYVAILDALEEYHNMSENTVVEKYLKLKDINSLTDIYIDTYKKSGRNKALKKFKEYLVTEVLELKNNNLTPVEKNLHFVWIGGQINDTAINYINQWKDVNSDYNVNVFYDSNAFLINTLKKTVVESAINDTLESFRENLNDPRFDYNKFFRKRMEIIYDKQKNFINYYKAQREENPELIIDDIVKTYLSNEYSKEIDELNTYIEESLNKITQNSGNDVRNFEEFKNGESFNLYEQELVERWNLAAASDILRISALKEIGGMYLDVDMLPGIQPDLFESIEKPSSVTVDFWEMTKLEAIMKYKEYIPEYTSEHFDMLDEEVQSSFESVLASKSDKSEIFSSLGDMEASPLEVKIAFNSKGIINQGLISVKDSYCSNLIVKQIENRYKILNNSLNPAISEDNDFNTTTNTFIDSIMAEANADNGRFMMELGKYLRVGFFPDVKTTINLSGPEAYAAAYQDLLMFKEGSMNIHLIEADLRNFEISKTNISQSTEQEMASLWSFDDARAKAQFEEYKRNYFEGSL

Compound | IC50 [µM]
CS(=O)(=O)Nc1ccc(CN2C(=O)c3ccc(Cl)cc3NC(=O)[C@H]2Cc2ccccn2)cc1 [Example 30a, (R)—N-(4-((8-Chloro-2,5-dioxo-3-(pyridin-2-ylmethyl)-2,3-dihydro-1H-benzo[e][1,4]diazepin-4(5H)-yl)methyl)phenyl)methanesulfonamide] | 10 to 35
COCC(=O)Nc1ccc(CN2C(=O)c3ccc(Cl)cc3NC(=O)[C@H]2Cc2ccccn2)cc1 [Example 30b] | 10 to 35
O=C1Nc2cc(Cl)ccc2C(=O)N(Cc2cccc(NS(=O)(=O)c3ccccn3)c2)[C@@H]1Cc1ccccn1 [Example 30c] | 1 to 10
O=C(c1ccc(CN2C(=O)c3ccc(Cl)cc3NC(=O)[C@H]2Cc2ccccn2)cc1)c1cccc2cccnc12 [Example 31b] | 1 to 10
Cn1ccnc1C(=O)c1ccc(CN2C(=O)c3ccc(Cl)cc3NC(=O)[C@H]2Cc2ccccn2)cc1 [Example 31c] | 0.1 to 0.999
Cn1cnc(C(=O)c2ccc(CN3C(=O)c4ccc(Cl)cc4NC(=O)[C@H]3Cc3ccccn3)cc2)c1 [Example 31d] | 0.1 to 0.999
Cc1cc(C(=O)c2ccc(CN3C(=O)c4ccc(Cl)cc4NC(=O)[C@H]3Cc3ccccn3)cc2)c2nccn2c1 [Example 31e] | 1 to 10
O=C(c1ccc(CN2C(=O)c3ccc(Cl)cc3NC(=O)[C@H]2Cc2ccccn2)cc1)c1cccn2ncnc12 [Example 31f] | < 0.1
O=C1Nc2cc(Cl)ccc2C(=O)N(C[C@H]2CC[C@H](C(=O)c3cccc4cccnc34)CC2)[C@@H]1Cc1ccccn1 [Example 33a, (R)-8-Chloro-3-(pyridin-2-ylmethyl)-4-(((1r,4R)-4-(quinoline-8-carbonyl)cyclohexyl)methyl)-3,4-dihydro-1H-benzo[e][1,4]diazepine-2,5-dione] | 10 to 35
Cn1ccnc1C(=O)[C@H]1CC[C@H](CN2C(=O)c3ccc(Cl)cc3NC(=O)[C@H]2Cc2ccccn2)CC1 [Example 33c] | 1 to 10
Cn1cnc(C(=O)[C@H]2CC[C@H](CN3C(=O)c4ccc(Cl)cc4NC(=O)[C@H]3Cc3ccccn3)CC2)c1 [Example 33d] | 0.1 to 0.999
Cc1ccc(NC(=O)c2ccc(CN3C(=O)c4ccc(Cl)cc4NC(=O)[C@@H]3Cc3cscn3)cc2)nc1 [Example 35a, (S)-4-((8-Chloro-2,5-dioxo-3-(thiazol-4-ylmethyl)-2,3-dihydro-1H-benzo[e][1,4]diazepin-4(5H)-yl)methyl)-N-(5-methylpyridin-2-yl)benzamide] | 0.1 to 0.999
Cc1ccc(NC(=O)c2ccc(CN3C(=O)c4ccc(Cl)cc4NC(=O)[C@H]3Cc3ccsc3)cc2)nc1 [Example 35b] | < 0.1
O=C(Nc1ccccn1)c1ccc(CN2C(=O)c3ccc(Cl)cc3NC(=O)[C@H]2c2ccccc2)cc1 [Example 35c] | 1 to 10
COc1ccc(C[C@@H]2C(=O)Nc3cc(Cl)ccc3C(=O)N2Cc2ccc(C(=O)Nc3ccccn3)cc2)cc1 [Example 35d] | 0.1 to 0.999
O=C(Nc1ccccn1)c1ccc(CN2C(=O)c3ccc(Cl)cc3NC(=O)C2CC2CCOCC2)cc1 (stereo not shown) [Example 35e] | 1 to 10
O=C(Nc1ccccn1)c1ccc(CN2C(=O)c3ccc(C(F)(F)F)cc3NC(=O)[C@H]2Cc2ccc(Cl)c(Cl)c2)cc1 [Example 35f] | 1 to 10
O=C(Nc1ccccn1)c1ccc(CN2C(=O)c3ccccc3NC(=O)[C@H]2Cc2cccnc2)cc1 [Example 35g] | 0.1 to 0.999
O=C(Nc1ccccn1)c1ccc(CN2C(=O)c3cc(Cl)ccc3NC(=O)[C@H]2Cc2cccnc2)cc1 [Example 35h] | 0.1 to 0.999
O=C(Nc1ccccn1)c1ccc(CN2C(=O)c3cccc(Cl)c3NC(=O)[C@H]2Cc2cccnc2)cc1 [Example 35i] | 1 to 10
O=C(Nc1ccccn1)c1ccc(CN2C(=O)c3ccc(Cl)cc3NC(=O)[C@H]2Cc2cccc(F)c2)cc1 [Example 35j] | < 0.1

Compound | IC50 [µM]
CC(C)C[C@@H]1C(=O)Nc2cc(Cl)ccc2C(=O)N1Cc1ccc(C(=O)Nc2ccccn2)cc1 [Example 35k] | 10 to 35
O=C1Nc2cc(Cl)ccc2C(=O)N(C[C@H]2CC[C@H](C(=O)Nc3ccccn3)CC2)[C@@H]1Cc1cccnc1 [Example 35l] | 0.1 to 0.999
O=C(Nc1ccccn1)c1ccc(CN2C(=O)c3ccc(Cl)cc3NC(=O)[C@@H]2Cc2cccnc2)cc1 [Example 35m] | 0.1 to 0.999
O=C(Nc1ccccn1)c1ccc(CN2C(=O)c3ccncc3NC(=O)[C@H]2Cc2cccnc2)cc1 [Example 35n] | 0.1 to 0.999
O=C1Nc2cc(Cl)ccc2C(=O)N(Cc2ccc(S(=O)(=O)Nc3ccccn3)cc2)[C@@H]1Cc1cccnc1 [Example 36a, (R)-4-((8-Chloro-2,5-dioxo-3-(pyridin-3-ylmethyl)-2,3-dihydro-1H-benzo[e][1,4]diazepin-4(5H)-yl)methyl)-N-(pyridin-2-yl)benzenesulfonamide] | 1 to 10
O=C1Nc2cc(Cl)ccc2C(=O)N(Cc2ccc3c(c2)CCN(c2ccccn2)C3=O)[C@@H]1Cc1ccccn1 [Example 37a, (R)-8-Chloro-4-((1-oxo-2-(pyridin-2-yl)-1,2,3,4-tetrahydroisoquinolin-6-yl)methyl)-3-(pyridin-2-ylmethyl)-3,4-dihydro-1H-benzo[e][1,4]diazepine-2,5-dione] | 1 to 10
COc1ccc(COc2cc(CN3C(=O)c4ccc(Cl)cc4NC(=O)[C@H]3C)ccc2C(=O)O)cc1 [Example 38a, (R)-2-(4-Methoxybenzyloxy)-4-((8-chloro-3-methyl-2,5-dioxo-2,3-dihydro-1H-benzo[e][1,4]diazepin-4(5H)-yl)methyl)benzoic Acid] | 10 to 35
Cc1ccc(NC(=O)c2ccc(CN3C(=O)c4ccc(NS(C)(=O)=O)cc4NC(=O)[C@H]3C)cc2)nc1 [Example 39a, (R)-4-((3-Methyl-8-(methylsulfonamido)-2,5-dioxo-2,3-dihydro-1H-benzo[e][1,4]diazepin-4(5H)-yl)methyl)-N-(5-methylpyridin-2-yl)benzamide] | 10 to 35
O=C(NO)c1ccc(CN2C(=O)c3ccc(Cl)cc3NC(=O)[C@H]2Cc2ccccn2)cc1 [Example 40a, (R)-4-((8-Chloro-2,5-dioxo-3-(pyridin-2-ylmethyl)-2,3-dihydro-1H-benzo[e][1,4]diazepin-4(5H)-yl)methyl)-N-hydroxybenzamide] | < 0.1
O=C1Nc2cc(Cl)ccc2C(=O)N(Cc2ccc(CO)cc2)[C@@H]1Cc1ccccn1 [Example 41a, 8-Chloro-4-(4-(hydroxymethyl)benzyl)-3-(pyridin-2-ylmethyl)-3,4-dihydro-1H-benzo[e][1,4]diazepine-2,5-dione] | 1 to 10
O=C1Nc2cc(Cl)ccc2C(=O)N(CC2CCN(C(=O)Nc3ccccn3)CC2)[C@@H]1Cc1ccccn1 [Example 42a, (R)-4-((8-Chloro-2,5-dioxo-3-(pyridin-2-ylmethyl)-2,3-dihydro-1H-benzo[e][1,4]diazepin-4(5H)-yl)methyl)-N-(pyridin-2-yl)piperidine-1-carboxamide] | 1 to 10
Cn1cc(C(=O)N2CCC(CN3C(=O)c4ccc(Cl)cc4NC(=O)[C@H]3Cc3ccccn3)CC2)c2ncccc21 [Example 43a, (R)-8-Chloro-4-((1-(1-methyl-1H-pyrrolo[3,2-b]pyridine-3-carbonyl)piperidin-4-yl)methyl)-3-(pyridin-2-ylmethyl)-3,4-dihydro-1H-benzo[e][1,4]diazepine-2,5-dione] | 1 to 10
Cc1ccc(Nc2nn(C)c3cc(CN4C(=O)c5ccc(Cl)cc5NC(=O)[C@H]4Cc4ccccn4)ccc23)nc1 [Example 44a, (R)-8-Chloro-4-((1-methyl-3-((5-methylpyridin-2-yl)amino)-1H-indazol-6-yl)methyl)-3-(pyridin-2-ylmethyl)-3,4-dihydro-1H-benzo[e][1,4]diazepine-2,5-dione] | 0.1 to 0.999
Nc1cccnc1C(=O)Nc1ccc(CN2C(=O)c3ccc(Cl)cc3NC(=O)[C@H]2Cc2ccccn2)cc1 [Example 45a, (R)-3-Amino-N-(4-((8-chloro-2,5-dioxo-3-(pyridin-2-ylmethyl)-2,3-dihydro-1H-benzo[e][1,4]diazepin-4(5H)-yl)methyl)phenyl)picolinamide] | < 0.1
O=C1Nc2cc(Cl)ccc2C(=O)N(Cc2ccc(-n3cnc4cccnc4c3=O)cc2)[C@@H]1Cc1ccccn1 [Example 46a, (R)-8-Chloro-4-(4-(4-oxopyrido[3,2-c]pyrimidin-3(4H)-yl)benzyl)-3-(pyridin-2-ylmethyl)-3,4-dihydro-1H-benzo[e][1,4]diazepine-2,5-dione] | < 0.1
Cc1nc2cccnc2c(=O)n1-c1ccc(CN2C(=O)c3ccc(Cl)cc3NC(=O)[C@H]2Cc2ccccn2)cc1 [Example 47a, (R)-8-Chloro-4-(4-(2-methyl-4-oxopyrido[3,2-d]pyrimidin-3(4H)-yl)benzyl)-3-(pyridin-2-ylmethyl)-3,4-dihydro-1H-benzo[e][1,4]diazepine-2,5-dione] | < 0.1
O=C(Nc1ccc(N2CCNCC2)cn1)c1ccc(CN2C(=O)c3ccc(Cl)cc3NC(=O)[C@H]2Cc2ccccn2)cc1 [Example 48a, (R)-4-((8-Chloro-2,5-dioxo-3-(pyridin-2-ylmethyl)-2,3-dihydro-1H-benzo[e][1,4]diazepin-4(5H)-yl)methyl)-N-(5-(piperazin-1-yl)pyridin-2-yl)benzamide hydrochloride] | < 0.1
O=C(Nc1ncc(C(F)(F)F)cn1)c1ccc(CN2C(=O)c3ccc(Cl)cc3NC(=O)[C@H]2Cc2ccccn2)cc1 [Example 49a, (R)-4-((8-Chloro-2,5-dioxo-3-(pyridin-2-ylmethyl)-2,3-dihydro-1H-benzo[e][1,4]diazepin-4(5H)-yl)methyl)-N-(5-(trifluoromethyl)pyrimidin-2-yl)benzamide] | < 0.1
O=C1Nc2cc(Cl)ccc2C(=O)N(Cc2ccc3c(c2)CN(c2ccccn2)C3=O)[C@@H]1Cc1ccccn1 [Example 49d] | 0.1 to 0.999
O=C1Nc2cc(Cl)ccc2C(=O)N(Cc2ccc3c(Nc4ccccn4)nccc3c2)[C@@H]1Cc1ccccn1 [Example 49e] | < 0.1
CC1C(=O)Nc2cc(Cl)ccc2C(=O)N1C1(c2ccc(C(=O)c3cccn4ccnc34)cc2)CC1 (stereo not drawn) [Example 50a, 8-Chloro-4-(1-(4-(imidazo[1,2-α]pyridine-8-carbonyl)phenyl)cyclopropyl)-3-methyl-3,4-dihydro-1H-benzo[e][1,4]diazepine-2,5-dione] | 0.1 to 0.999

same assay, conditions: read-out: TcdB UDP-Glucose hydrolysis activity (IC50, coded); UDP-Glucose hydrolysis assay, fluorescence polarization

Compound | IC50 [µM]
O=C1Nc2cc(Cl)ccc2C(=O)N(C[C@H]2CC[C@H](C(=O)c3cccn4ccnc34)CC2)[C@@H]1Cc1ccccn1 [Example 34b] | < 0.1
